ChEMBL document CHEMBL1201862, “PubChem BioAssay data set” (2004)
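Grown in 96-well plates, cells were treated for 48 hours with each compound at five concentrations. Insufficient inhibition: endpoint recorded as highest concentration tested. GI50 marks 50% less growth.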 Activity calls are given as the source filed them. Rule as the data show it: active = GI50 up to about 1.1 µM and inactive = higher.

What was measured:
Assay in all cases: inhibition of tumour cell growth, NCI panel, 48 h
786-0 = system: 786-0
A498 = system: A498
ACHN = system: ACHN
BT-549 = system: BT-549
CAKI-1 = system: CAKI-1
CCRF-CEM = system: CCRF-CEM
COLO 205 = system: COLO 205
DU-145 = system: DU-145
EKVX = system: EKVX
HCC 2998 = system: HCC 2998
HCT-116 = system: HCT-116
HCT-15 = system: HCT-15
HL-60 = system: HL-60
HOP-62 = system: HOP-62
HOP-92 = system: HOP-92
HT-29 = system: HT-29
Hs-578T = system: Hs-578T
IGROV-1 = system: IGROV-1
K562 = system: K562
KM12 = system: KM12
LOX IMVI = system: LOX IMVI
M14 = system: M14
MCF7 = system: MCF7
MDA-MB-231 = system: MDA-MB-231
MDA-MB-435 = system: MDA-MB-435
MOLT-4 = system: MOLT-4
NCI-H226 = system: NCI-H226
NCI-H23 = system: NCI-H23
NCI-H460 = system: NCI-H460
NCI/ADR-RES = system: NCI/ADR-RES
OVCAR-4 = system: OVCAR-4
OVCAR-8 = system: OVCAR-8
PC-3 = system: PC-3
RPMI-8226 = system: RPMI-8226
RXF 393 = system: RXF 393
SF-268 = system: SF-268
SF-295 = system: SF-295
SF-539 = system: SF-539
SK-MEL-28 = system: SK-MEL-28
SK-MEL-2 = system: SK-MEL-2
SK-MEL-5 = system: SK-MEL-5
SK-OV-3 = system: SK-OV-3
SNB-19 = system: SNB-19
SNB-75 = system: SNB-75
SR = system: SR
SW-620 = system: SW-620
T47D = system: T47D
TK-10 = system: TK-10
U-251 = system: U-251
UACC-257 = system: UACC-257
UACC-62 = system: UACC-62
UO-31 = system: UO-31
A549 = system: A549
MDA-N = system: MDA-N
Malme-3M = system: Malme-3M
OVCAR-3 = system: OVCAR-3
OVCAR-5 = system: OVCAR-5
SN12C = system: SN12C
NCI-H522 = system: NCI-H522

Measured: GI50

O=c1[nH]c2ccc(C(F)(F)F)cc2nc1Cc1ccccc1
inactive: 786-0 35.5 µM | A498 26.6 µM | ACHN 29.1 µM | BT-549 34 µM | CAKI-1 49.2 µM | CCRF-CEM 29.4 µM | COLO 205 18.1 µM | DU-145 34.4 µM | EKVX 25.8 µM | HCC 2998 24.1 µM | HCT-116 37.2 µM | HL-60 34.8 µM | HOP-62 33 µM | HOP-92 18.7 µM | HT-29 25.4 µM | Hs-578T 22.3 µM | IGROV-1 23.4 µM | K562 38.5 µM | KM12 31.6 µM | LOX IMVI 40 µM | M14 29.9 µM | MCF7 28.7 µM | MDA-MB-231 37.8 µM | MDA-MB-435 28.4 µM | MOLT-4 16.2 µM | NCI-H226 17.7 µM | NCI-H23 19.6 µM | NCI-H460 27.9 µM | NCI/ADR-RES 18.5 µM | OVCAR-4 33.4 µM | OVCAR-8 39.5 µM | PC-3 26.4 µM | RPMI-8226 39.2 µM | RXF 393 27.2 µM | SF-268 35.2 µM | SF-295 33.5 µM | SF-539 31.3 µM | SK-MEL-28 39.7 µM | SK-MEL-2 24.7 µM | SK-MEL-5 24.7 µM | SK-OV-3 44.9 µM | SNB-19 53 µM | SNB-75 45.9 µM | SR > 100 µM | SW-620 39.4 µM | T47D 40.5 µM | TK-10 > 100 µM | U-251 45.7 µM | UACC-257 67.1 µM | UACC-62 42.9 µM | UO-31 37.3 µM
36.1 µM: HCT-15

O=C1/C(=C\c2cccc(Oc3ccccc3)c2)SC(c2ccccc2)N1c1cccc(Cl)c1 (stereo not given)
inactive: 786-0 > 100 µM | A498 > 100 µM | A549 > 100 µM | ACHN > 100 µM | BT-549 > 100 µM | CAKI-1 > 100 µM | COLO 205 > 100 µM | DU-145 > 100 µM | EKVX > 100 µM | HCC 2998 > 100 µM | HCT-116 > 100 µM | HOP-62 > 100 µM | HOP-92 > 100 µM | HT-29 > 100 µM | Hs-578T > 100 µM | K562 > 100 µM | KM12 35.8 µM | LOX IMVI > 100 µM | M14 > 100 µM | MDA-MB-231 > 100 µM | MDA-MB-435 92.7 µM | MDA-N > 100 µM | MOLT-4 > 100 µM | Malme-3M > 100 µM | NCI-H226 > 100 µM | NCI-H23 > 100 µM | NCI-H460 > 100 µM | NCI/ADR-RES > 100 µM | OVCAR-3 > 100 µM | OVCAR-4 > 100 µM | OVCAR-5 > 100 µM | OVCAR-8 > 100 µM | RPMI-8226 > 100 µM | RXF 393 64.1 µM | SF-268 > 100 µM | SF-295 > 100 µM | SK-MEL-28 > 100 µM | SK-MEL-2 > 100 µM | SK-MEL-5 > 100 µM | SK-OV-3 > 100 µM | SN12C > 100 µM | SNB-19 > 100 µM | SW-620 > 100 µM | T47D > 100 µM | TK-10 > 100 µM | U-251 > 100 µM | UACC-257 > 100 µM | UACC-62 > 100 µM | UO-31 > 100 µM
> 100 µM: HCT-15

COc1cc(S(=O)(=O)Nc2ccc(-c3csc(N4C(=O)C(Cl)C4c4cccc(Oc5ccccc5)c4)n3)cc2)ccc1Cl (stereo not given)
> 100 µM: HCT-15
inactive: 786-0 13.7 µM | A498 25.2 µM | A549 > 100 µM | ACHN 24 µM | BT-549 21.2 µM | CAKI-1 20.2 µM | CCRF-CEM 3.31 µM | COLO 205 21.5 µM | DU-145 21.7 µM | EKVX 20.7 µM | HCC 2998 > 100 µM | HCT-116 35.6 µM | HL-60 20.5 µM | HOP-62 38.3 µM | HOP-92 15.3 µM | HT-29 49.5 µM | Hs-578T > 100 µM | IGROV-1 2.71 µM | K562 27.9 µM | KM12 26.9 µM | LOX IMVI 2.24 µM | M14 22.9 µM | MCF7 37.7 µM | MDA-MB-435 20.3 µM | MDA-N 22.3 µM | MOLT-4 15.3 µM | Malme-3M > 100 µM | NCI-H226 18.8 µM | NCI-H23 16 µM | NCI-H460 > 100 µM | NCI-H522 1.69 µM | NCI/ADR-RES > 100 µM | OVCAR-3 58.5 µM | OVCAR-4 4.91 µM | OVCAR-5 38.5 µM | OVCAR-8 30.3 µM | PC-3 17.1 µM | RPMI-8226 19.7 µM | RXF 393 3.13 µM | SF-268 15 µM | SF-295 > 100 µM | SF-539 16.1 µM | SK-MEL-28 24.3 µM | SK-MEL-2 31 µM | SK-MEL-5 29.1 µM | SK-OV-3 > 100 µM | SN12C 15.5 µM | SNB-19 > 100 µM | SNB-75 22.3 µM | SR 3.13 µM | SW-620 36.1 µM | T47D 24.4 µM | UACC-257 39.6 µM | UACC-62 24.5 µM | UO-31 21.2 µM

CCCCN(CCCC)CC(=O)c1ccc2cc(Cl)c3ccccc3c2c1
22.9 µM: HCT-15
inactive: 786-0 57.4 µM | A498 20.7 µM | A549 27.2 µM | ACHN 20.4 µM | BT-549 19.1 µM | CAKI-1 29.5 µM | CCRF-CEM > 100 µM | COLO 205 14.9 µM | DU-145 > 100 µM | EKVX 67.3 µM | HCC 2998 32.1 µM | HCT-116 43.1 µM | HL-60 24.1 µM | HOP-62 50 µM | HOP-92 33.5 µM | HT-29 17.4 µM | Hs-578T 35.7 µM | IGROV-1 20.9 µM | K562 24.9 µM | KM12 32 µM | LOX IMVI 23.4 µM | M14 76 µM | MCF7 30.1 µM | MDA-MB-231 31.4 µM | MDA-MB-435 30.4 µM | MOLT-4 31.5 µM | Malme-3M 37.6 µM | NCI-H226 25.3 µM | NCI-H23 46.9 µM | NCI-H460 18.3 µM | NCI-H522 16.4 µM | NCI/ADR-RES 99.3 µM | OVCAR-3 51.4 µM | OVCAR-4 24.2 µM | OVCAR-5 51.1 µM | OVCAR-8 20 µM | PC-3 32 µM | RPMI-8226 7.98 µM | RXF 393 13.4 µM | SF-268 16.1 µM | SF-295 31 µM | SF-539 42.6 µM | SK-MEL-2 25.5 µM | SK-MEL-5 17.9 µM | SK-OV-3 31 µM | SN12C 50.7 µM | SNB-19 33.7 µM | SNB-75 29.8 µM | SR 16.1 µM | SW-620 29.8 µM | T47D 17.7 µM | TK-10 50 µM | U-251 19.6 µM | UACC-257 31.9 µM | UACC-62 32.6 µM | UO-31 20.6 µM

CC12CC(c3ccccc3O1)C(C(=O)Nc1ccc(Cl)cc1Cl)C(=O)N2 (stereo not given)
inactive: 786-0 19.7 µM | A549 23.2 µM | ACHN 25 µM | BT-549 89.3 µM | CAKI-1 45 µM | CCRF-CEM 15 µM | COLO 205 64.6 µM | DU-145 27.6 µM | EKVX 18.3 µM | HCC 2998 49.1 µM | HCT-116 34.3 µM | HL-60 3.34 µM | HOP-62 20.1 µM | HT-29 40.1 µM | Hs-578T 25.2 µM | IGROV-1 24.2 µM | K562 38.3 µM | KM12 > 100 µM | LOX IMVI 22.5 µM | M14 18 µM | MCF7 > 100 µM | MDA-MB-435 67.1 µM | MDA-N > 100 µM | MOLT-4 19.1 µM | Malme-3M 39 µM | NCI-H23 25.9 µM | NCI-H460 31.6 µM | NCI-H522 56.8 µM | NCI/ADR-RES 36.8 µM | OVCAR-3 38 µM | OVCAR-4 19.6 µM | OVCAR-5 29.6 µM | OVCAR-8 14.9 µM | PC-3 44 µM | RPMI-8226 44 µM | SF-268 33.8 µM | SF-295 48.2 µM | SF-539 45.4 µM | SK-MEL-28 72.8 µM | SK-MEL-2 > 100 µM | SK-MEL-5 > 100 µM | SK-OV-3 73.8 µM | SNB-19 36.7 µM | SW-620 24.8 µM | T47D 20.3 µM | U-251 22.2 µM | UACC-257 > 100 µM | UACC-62 > 100 µM | UO-31 19.2 µM
54.2 µM: HCT-15
